Measurements published in patent US9434711B2 (Janssen Pharmaceutica, NV, priority 2007, dated 2016).

Target: canine TRPM8 (Canis lupus familiaris, UniProt Q1A7N1)
Experiment: In Vitro Canine TRPM8 Functional Assay (Ca2+ fluorescence, icilin activation)
Assay type: cell-based
Conditions: for IC50: HEK293 cells stably expressing canine TRPM8, icilin activation, eight-point dose-response, read-out: IC50; for inhibition at 0.2 µM: compound at 0.2 μM, canine TRPM8, icilin activation, read-out: % Inh @ 0.2
Procedure, shortened: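 HEK293 cells stably expressing canine TRPM8 loaded with Calcium 3 dye; compound added and Ca2+ fluorescence monitored 5 min before icilin at a final level giving ~80% maximal response, read on FLIPR or FDSS. EC50 or IC50 from eight-point dose-response, quadruplicate wells per point.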

canine TRPM8, sequence (Q1A7N1 1-1104): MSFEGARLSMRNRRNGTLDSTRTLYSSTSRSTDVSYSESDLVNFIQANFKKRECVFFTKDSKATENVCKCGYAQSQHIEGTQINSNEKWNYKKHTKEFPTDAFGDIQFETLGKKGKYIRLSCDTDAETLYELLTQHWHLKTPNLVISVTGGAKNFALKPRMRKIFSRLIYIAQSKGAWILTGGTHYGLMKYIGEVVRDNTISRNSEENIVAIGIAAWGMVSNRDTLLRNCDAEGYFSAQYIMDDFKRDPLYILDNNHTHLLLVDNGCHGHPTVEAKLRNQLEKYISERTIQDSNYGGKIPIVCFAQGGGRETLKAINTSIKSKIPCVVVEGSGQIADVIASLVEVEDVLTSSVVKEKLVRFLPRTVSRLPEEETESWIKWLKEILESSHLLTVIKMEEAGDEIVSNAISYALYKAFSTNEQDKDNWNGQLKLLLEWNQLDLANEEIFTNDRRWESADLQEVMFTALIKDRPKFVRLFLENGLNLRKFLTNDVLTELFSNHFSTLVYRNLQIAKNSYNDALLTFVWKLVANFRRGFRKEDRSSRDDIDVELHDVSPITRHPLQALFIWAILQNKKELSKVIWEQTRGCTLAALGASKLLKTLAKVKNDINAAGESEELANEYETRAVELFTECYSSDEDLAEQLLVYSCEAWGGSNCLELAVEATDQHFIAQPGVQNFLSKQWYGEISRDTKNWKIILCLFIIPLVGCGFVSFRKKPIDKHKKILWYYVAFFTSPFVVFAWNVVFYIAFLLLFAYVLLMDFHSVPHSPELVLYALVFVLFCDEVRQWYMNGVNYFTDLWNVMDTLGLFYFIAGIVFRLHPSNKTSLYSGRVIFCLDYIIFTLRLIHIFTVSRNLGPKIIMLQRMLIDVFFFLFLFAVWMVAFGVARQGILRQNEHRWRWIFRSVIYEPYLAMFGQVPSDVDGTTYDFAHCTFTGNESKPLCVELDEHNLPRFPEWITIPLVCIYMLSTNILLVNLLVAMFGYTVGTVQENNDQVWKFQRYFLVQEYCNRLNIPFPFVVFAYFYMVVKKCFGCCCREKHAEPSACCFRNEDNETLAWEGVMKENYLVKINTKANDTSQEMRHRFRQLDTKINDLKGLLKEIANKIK

SMILES	IC50	inhibition at 0.2 µM
COC(=O)CCCS(=O)(=O)N(Cc1ccc(F)c(C(F)(F)F)c1)c1sc2ccccc2c1C [Compound 757, N-(4-Fluoro-3-trifluoromethyl-benzyl)-N-(3-methyl-benzo[b]thiophen-2-yl)-3-carbomethoxy-propanesulfonamide]	0.0108 µM	101%
Cc1c(N(Cc2ccc(F)c(C(F)(F)F)c2)S(=O)(=O)CCCCO)sc2ccccc12 [Compound 758, N-(4-Fluoro-3-trifluoromethyl-benzyl)-N-(3-methyl-benzo[b]thiophen-2-yl)-4-hydroxy-butanesulfonamide]	0.0051 µM	101%
Cc1c(N(Cc2ccc(F)c(C(F)(F)F)c2)S(=O)(=O)CCCC(C)(C)O)sc2ccccc12 [Compound 759, N-(4-Fluoro-3-trifluoromethyl-benzyl)-N-(3-methyl-benzo[b]thiophen-2-yl)-4-hydroxy-4-methyl-pentane-1-sulfonamide]	0.0183 µM	101%
COC(=O)CCS(=O)(=O)N(Cc1cccc(OC(F)(F)F)c1)c1sc2ccccc2c1C [Compound 760, N-(3-Methyl-benzo[b]thiophen-2-yl)-N-(3-trifluoromethoxy-benzyl)-2-carbomethoxy-ethanesulfonamide]	0.0459 µM	94%
COC(=O)CS(=O)(=O)N(Cc1ccc(OC(F)(F)F)cc1)c1sc2ccccc2c1C [Compound 761, N-(3-Methyl-benzo[b]thiophen-2-yl)-N-(4-trifluoromethoxy-benzyl)-carbomethoxy-methanesulfonamide]	0.04 µM	79%
Cc1c(N(Cc2cccc(OC(F)(F)F)c2)S(=O)(=O)CCC(=O)O)sc2ccccc12 [Compound 762, N-(3-Methyl-benzo[b]thiophen-2-yl)-N-(3-trifluoromethoxy-benzyl)-2-carboxy-ethanesulfonamide]	0.0253 µM	101%
Cc1c(N(Cc2cccc(OC(F)(F)F)c2)S(=O)(=O)CCC(C)(C)O)sc2ccccc12 [Compound 763, N-(3-Methyl-benzo[b]thiophen-2-yl)-N-(3-trifluoromethoxy-benzyl)-3-hydroxy-3-methyl-butane-1-sulfonamide]	0.0277 µM	102%
Cc1c(N(Cc2cccc(OC(F)(F)F)c2)S(=O)(=O)CCCO)sc2ccccc12 [Compound 764, N-(3-Methyl-benzo[b]thiophen-2-yl)-N-(3-trifluoromethoxy-benzyl)-3-hydroxy-propanesulfonamide]	0.0221 µM	101%
Cc1c(N(Cc2ccc(F)c(C(F)(F)F)c2)S(=O)(=O)CCCC(=O)O)sc2ccccc12 [Compound 765, N-(4-Fluoro-3-trifluoromethyl-benzyl)-N-(3-methyl-benzo[b]thiophen-2-yl)-3-carboxy-propanesulfonamide]	0.0136 µM	101%
COc1cc(NS(C)(=O)=O)c(Cl)cc1S(=O)(=O)N(Cc1ccc(F)c(C(F)(F)F)c1)c1sc2ccccc2c1Cl [Compound 766, 5-Chloro-N-(3-chloro-benzo[b]thiophen-2-yl)-N-(4-fluoro-3-trifluoromethyl-benzyl)-4-methanesulfonylamino-2-methoxy-benzenesulfonamide]	0.0078 µM	101%
Cc1c(N(Cc2ccc(F)c(C(F)(F)F)c2)S(=O)(=O)c2ccc3c(c2)CN(C)CC3)sc2ccccc12 [Compound 767, 2-Methyl-N-(4-fluoro-3-trifluoromethyl-benzyl)-N-(3-methyl-benzo[b]thiophen-2-yl)-1,2,3,4-tetrahydroisoquinolin-7-yl-sulfonamide]	0.0892 µM	77%
C=C(C)c1c(N(Cc2cc(OC)c(Cl)cc2F)S(=O)(=O)CC)sc2ccccc12 [Compound 768, N-(4-Chloro-2-fluoro-5-methoxy-benzyl)-N-(3-isopropenyl-benzo[b]thiophen-2-yl)-ethanesulfonamide]	0.0188 µM	93%
Cc1c(N(Cc2cccc(OC(F)(F)F)c2)S(=O)(=O)CCCBr)sc2ccccc12 [Compound 769, N-(3-Methyl-benzo[b]thiophen-2-yl)-N-(3-trifluoromethoxy-benzyl)-3-bromo-propane-1-sulfonamide]	0.044 µM	85%
Cc1c(N(Cc2cccc(OC(F)(F)F)c2)S(=O)(=O)C2CC2)sc2ccccc12 [Compound 770, N-(3-Methyl-benzo[b]thiophen-2-yl)-N-(3-trifluoromethoxy-benzyl)-cyclopropanesulfonamide]	0.0072 µM	95%
Cc1c(N(Cc2ccc(F)c(C(F)(F)F)c2)S(=O)(=O)CCCCBr)sc2ccccc12 [Compound 771, N-(4-Fluoro-3-trifluoromethyl-benzyl)-N-(3-methyl-benzo[b]thiophen-2-yl)-4-bromo-butane-1-sulfonamide]	0.0072 µM	96%
CC(=O)c1c(N(Cc2ccc(OC(F)(F)F)cc2)S(=O)(=O)c2ccc(C#N)cc2)sc2ccccc12 [Compound 772, N-(3-Acetyl-benzo[b]thiophen-2-yl)-N-(4-trifluoromethoxy-benzyl)-4-cyano-benzenesulfonamide]	0.0057 µM	95%
CC(=O)c1c(N(CCCCC(F)(F)F)S(=O)(=O)c2ccc(C#N)cc2)sc2ccccc12 [Compound 773, N-(3-Acetyl-benzo[b]thiophen-2-yl)-N-(5,5,5-trifluoro-pentyl)-4-cyano-benzenesulfonamide]	0.0167 µM	94%
Cc1c(N(Cc2ccc(OC(F)(F)F)cc2)S(=O)(=O)c2ccc(C(=O)O)c(F)c2)sc2ccccc12 [Compound 774, N-(3-Methyl-benzo[b]thiophen-2-yl)-N-(4-trifluoromethoxy-benzyl)-3-fluoro-4-carboxy-benzenesulfonamide]	0.0013 µM	95%
Cc1c(N(Cc2ccc(F)c(C(F)(F)F)c2)S(=O)(=O)c2ccc(C(=O)O)c(F)c2)sc2ccccc12 [Compound 775, N-(3-Methyl-benzo[b]thiophen-2-yl)-N-(4-fluoro-3-trifluoromethyl-benzyl)-3-fluoro-4-carboxy-benzenesulfonamide]	0.0016 µM	95%
CCS(=O)(=O)N(Cc1cccc(OC)c1F)c1sc2ccccc2c1C(C)(C)O [Compound 776, N-(2-Fluoro-3-methoxy-benzyl)-N-[3-(1-hydroxy-1-methyl-ethyl)-benzo[b]thiophen-2-yl]-ethanesulfonamide]	0.0067 µM	95%
Cc1c(N(CCC2CC2)S(=O)(=O)c2ccc(C(=O)N3CCN(C)CC3)cc2)sc2ccccc12 [Compound 777, N-(2-Cyclopropyl-ethyl)-N-(3-methyl-benzo[b]thiophen-2-yl)-4-(4-methyl-piperazine-1-carbonyl)-benzenesulfonamide]		56%
Cc1c(N(Cc2cccc(OC(F)(F)F)c2)S(=O)(=O)CCCn2ccnc2)sc2ccccc12 [Compound 778, N-(3-Methyl-benzo[b]thiophen-2-yl)-N-(3-trifluoromethoxy-benzyl)-3-imidazol-1-yl-propane-1-sulfonamide]	0.107 µM	87%
